IC50 and EC50 data for 28 molecules are collected here from US9856262B2, “Analogues of 4H-pyrazolo[1,5-a] benzimidazole compound as PARP inhibitors” (HUBEI BIO-PHARMACEUTICAL INDUSTRIAL TECHNOLOGICAL INSTITUTE …, priority 2014, dated 2018).

The structures appear in SMILES notation. Read-outs that look alike come from different tables or passages of the source. Where only a bound is given, the exact number is not on record here.

One assay concerns the target T1, PARP-1 (Homo sapiens, UniProt P09874).
T1 construct: purchased
In words: PARP enzymatic assay (HT Universal Colorimetric PARP1 Assay Kit). Format: biochemical. The settings on record: read-out: PARP-1 enzymatic inhibition IC50. As to the method: PARP Enzymatic Assay (Following the Manual of HT Universal Colorimetric PARP1 Assay Kit).
Histone proteins were coated on a 96-well plate and incubated overnight at 4° C. After be washed 3 times with 200 ul PBST solution, the plate was blocked with a blocking solution and incubated for 30 min at room temperature, and then washed with PBST solution 3 times. A compound to be tested was treated and added to the plate. Thereafter, 20 μl of diluted PARP1 (1 nM) or 20 μl of PARP2 (3 nM) solution was added into the reaction system and incubated for 1 or 2 hours. 50 ul of streptavidin-HRP mixture (1:50) was added into the plate and incubated for 30 min at room temperature. The plate was then washed with three times with PBST buffer. 100 μl of (HRP) (Chemiluminescent substrate A and substrate B (1:1)) was added into the plate, and the plate was immediately read on a microplate reader (Envision, PerkinElmer).

A further assay concerns HCC1937 cells. Description: Cellular PARylation assay. Format: cell-based. The conditions noted are these: Homo sapiens. The procedure:
Cellular PARylation Assay
HCC1937 cells were planted into 96 well plates at 4×10^4 cells/well and incubated at 37° C. in an incubator overnight. After being treated with a test compound for 30 min, cells were then treated with 1 mM H2O2 for 10 min. The cells were washed with 200 ul pre-chilled PBS twice and fixed with 100 ul pre-chilled methanol/acetone (7:3) on ice for 30 min. After being air-dried, the plates were blocked using PBS-Tween blocking solution (0.05%) with dissolved 5% nonfat dry milk for 30 min at room temperature. The cells were incubated with anti-PAR antibody 10H (1:100) at room temperature for 1 hour followed by washing with PBS-Tween20 for 3 times; and then added into a blocking solution including goat anti-mouse fluorescein isothiocyanate (FITC)-coupled secondary antibody and 1 μg/mL DAPI to incubate away from light at room temperature for 1 hour. After being washed with PBS-Tween20 for 3 times, the plate was analyzed with a fluorescence microplate counter (Flexstation III, Molecular Device).

[1] abbreviates: HCC1937 cells, compound 30 min then 1 mM H2O2 10 min, read-out: cellular PARylation EC50.

T1 sequence (P09874 whole entry): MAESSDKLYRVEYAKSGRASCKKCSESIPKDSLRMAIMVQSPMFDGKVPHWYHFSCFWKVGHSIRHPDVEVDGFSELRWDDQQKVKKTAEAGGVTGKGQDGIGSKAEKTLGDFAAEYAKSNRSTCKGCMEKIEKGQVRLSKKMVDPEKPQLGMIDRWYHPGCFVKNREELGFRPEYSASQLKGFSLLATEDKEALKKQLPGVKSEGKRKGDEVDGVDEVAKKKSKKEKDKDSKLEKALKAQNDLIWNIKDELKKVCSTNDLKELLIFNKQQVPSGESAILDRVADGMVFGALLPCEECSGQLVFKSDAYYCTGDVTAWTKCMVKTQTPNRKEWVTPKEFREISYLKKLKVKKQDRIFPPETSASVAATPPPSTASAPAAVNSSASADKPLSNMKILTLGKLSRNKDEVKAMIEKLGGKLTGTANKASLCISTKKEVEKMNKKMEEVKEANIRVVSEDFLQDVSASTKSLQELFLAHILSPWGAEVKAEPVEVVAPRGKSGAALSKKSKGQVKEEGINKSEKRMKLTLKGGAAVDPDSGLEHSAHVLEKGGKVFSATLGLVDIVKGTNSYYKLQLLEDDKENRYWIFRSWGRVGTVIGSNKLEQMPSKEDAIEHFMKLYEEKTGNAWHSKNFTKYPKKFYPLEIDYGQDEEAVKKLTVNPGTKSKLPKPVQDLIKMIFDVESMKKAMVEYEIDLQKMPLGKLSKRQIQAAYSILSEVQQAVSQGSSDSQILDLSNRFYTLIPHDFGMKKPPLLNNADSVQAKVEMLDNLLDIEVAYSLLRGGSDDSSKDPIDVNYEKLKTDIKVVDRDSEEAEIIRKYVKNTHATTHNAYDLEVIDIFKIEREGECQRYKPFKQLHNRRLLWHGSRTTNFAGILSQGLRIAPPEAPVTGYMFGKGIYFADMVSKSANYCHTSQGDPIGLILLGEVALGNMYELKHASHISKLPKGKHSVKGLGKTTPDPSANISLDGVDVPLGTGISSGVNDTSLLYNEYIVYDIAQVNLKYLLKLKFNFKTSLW

In general, IC50 refers to the point on the concentration scale where inhibition reaches its midpoint. One may read the EC50 as the concentration at which the effect is half-maximal. In the case of `CC(C)N1CCC(c2cnn3c2[nH]c2cc(F)cc(C(N)=O)c23)C1` (centres unmarked) [Example 22, 6-fluoro-3-(1-isopropylpyrrolidin-3-yl)-4H-benzo[4,5]imidazo[1,2-b]pyrazole-8-carboxamide], the IC50 at PARP-1 is 1 to 100 nM. Also, the EC50 with HCC1937 cells (setting [1]) is 1 to 100 nM.

Turning to `CC1(c2cnn3c2[nH]c2cc(F)cc(C(N)=O)c23)CCN(CC2(C#N)CCC2)CC1` [Example 64, 3-(1-((1-cyanocyclobutyl)methyl)-4-methylpiperidin-4-yl)-6-fluoro-4H-benzo[4,5]imidazo[1,2-b]pyrazole-8-carboxamide], the half-inhibitory concentration (IC50) at PARP-1 was in the range of 1 to 100 nM. In addition, the EC50 in the assay with HCC1937 cells (setting [1]) lay in the range of 101 to 1000 nM.

`CC1(c2cnn3c2[nH]c2cc(F)cc(C(N)=O)c23)CCN(Cc2cccs2)CC1` [Example 77, 6-fluoro-3-(4-methyl-1-(thiophen-2-ylmethyl)piperidin-4-yl)-4H-benzo[4,5]imidazo[1,2-b]pyrazole-8-carboxamide]: the half-maximal inhibitory concentration (IC50) on PARP-1 fell in the range of 1 to 100 nM. Besides, in the assay with HCC1937 cells (setting [1]), the EC50 lay within 1 to 100 nM.

As to `CC(C)(O)CN1CCC(c2cnn3c2[nH]c2cc(F)cc(C(N)=O)c23)CC1` [Example 6, 6-fluoro-3-(1-(2-hydroxy-2-methylpropyl)piperidin-4-yl)-4H-benzo[4,5]imidazo[1,2-b]pyrazole-8-carboxamide], on PARP-1, the IC50 fell in the range of 1 to 100 nM. In addition, the 50% effective concentration (EC50) in the assay on HCC1937 cells (setting [1]) lay within 1 to 100 nM.

Regarding `NC(=O)c1cc(F)cc2[nH]c3c(C4CCN(CC5CC5)CC4)cnn3c12` [Example 5, 3-(1-(cyclopropylmethyl)piperidin-4-yl)-6-fluoro-4H-benzo[4,5]imidazo[1,2-b]pyrazole-8-carboxamide], the IC50 on PARP-1 was 1 to 100 nM. In the assay with HCC1937 cells (setting [1]), the EC50 lay within 1 to 100 nM.

`NC(=O)c1cc(F)cc2[nH]c3c(C4CCN(CCF)CC4)cnn3c12` [Example 3, 6-fluoro-3-(1-(2-fluoroethyl)piperidin-4-yl)-4H-benzo[4,5]imidazo[1,2-b]pyrazole-8-carboxamide]: on PARP-1, the IC50 fell in the range of 1 to 100 nM. Further, the EC50 with HCC1937 cells (setting [1]) was 1 to 100 nM.

For the molecule `CN1CCN(C(=O)c2cnn3c2[nH]c2cc(F)cc(C(N)=O)c23)CC1` [Example 49, 6-fluoro-3-(4-methylpiperazine-1-carbonyl)-4H-benzo[4,5]imidazo[1,2-b]pyrazole-8-carboxamide], on PARP-1, the IC50 lay in the range of 1 to 100 nM. Besides, the EC50 with HCC1937 cells (setting [1]) lay within 101 to 1000 nM.

`NC(=O)c1cc(F)cc2c1-n1ncc(C3CCN(CC4CC4)CC3)c1C2(F)F` [Example 50, 3-(1-(cyclopropylmethyl)piperidin-4-yl)-4,4,6-trifluoro-4H-pyrazolo[1,5-α]indole-8-carboxamide]: the IC50 at PARP-1 is 101 to 1000 nM. Further, the EC50 with HCC1937 cells (setting [1]) is greater than 1000 nM.

As for `CN1CCC(c2cnn3c2[nH]c2cc(F)cc(C(N)=O)c23)CC1` [Example 9, 6-fluoro-3-(1-methylpiperidin-4-yl)-4H-benzo[4,5]imidazo[1,2-b]pyrazole-8-carboxamide], the IC50 on PARP-1 was in the range of 1 to 100 nM. For the same molecule, in the assay on HCC1937 cells (setting [1]), the EC50 was 1 to 100 nM.

`CNCc1ccc(-c2cnn3c2[nH]c2cc(F)cc(C(N)=O)c23)c(F)c1` [Example 42, 6-fluoro-3-(2-fluoro-4-((methylamino)methyl)phenyl)-4H-benzo[4,5]imidazo[1,2-b]pyrazole-8-carboxamide]: at PARP-1, the IC50 lay within 1 to 100 nM. Further, in the assay with HCC1937 cells (setting [1]), the EC50 was in the range of 101 to 1000 nM.

On to `CN1CCC(C)(c2cnn3c2[nH]c2cc(F)cc(C(N)=O)c23)C1` (centres unmarked) [Example 91, 3-(1,3-dimethylpyrrolidin-3-yl)-6-fluoro-4H-benzo[4,5]imidazo[1,2-b]pyrazole-8-carboxamide], for which the IC50 at PARP-1 is 1 to 100 nM. The EC50 in the assay on HCC1937 cells (setting [1]) fell in the range of 1 to 100 nM.

Regarding `CCN1CCCC(c2cnn3c2[nH]c2cc(F)cc(C(N)=O)c23)CC1` (centres unmarked) [Example 18, 3-(1-ethylazepan-4-yl)-6-fluoro-4H-benzo[4,5]imidazo[1,2-b]pyrazole-8-carboxamide], on PARP-1, the half-inhibitory concentration (IC50) lay within 1 to 100 nM. Besides, the EC50 in the assay with HCC1937 cells (setting [1]) fell in the range of 1 to 100 nM.

As for `CCN1CCC(c2cnn3c2[nH]c2cccc(C(N)=O)c23)CC1` [Example 27, 3-(1-ethylpiperidin-4-yl)-4H-benzo[4,5]imidazo[1,2-b]pyrazole-8-carboxamide], the half-inhibitory concentration (IC50) at PARP-1 lay within 1 to 100 nM. The EC50 in the assay with HCC1937 cells (setting [1]) was in the range of 1 to 100 nM.

As for `CCN1CCC(C)(c2cnn3c2[nH]c2cc(Cl)cc(C(N)=O)c23)CC1` [Example 89, 6-chloro-3-(1-ethyl-4-methylpiperidin-4-yl)-4H-benzo[4,5]imidazo[1,2-b]pyrazole-8-carboxamide], at PARP-1, the IC50 lay in the range of 1 to 100 nM. The EC50 in the assay on HCC1937 cells (setting [1]) is 101 to 1000 nM.

On to `N#Cc1cnn2c1[nH]c1cccc(C(N)=O)c12` [Example 38, 3-cyano-4H-benzo[4,5]imidazo[1,2-b]pyrazole-8-carboxamide], for which, at PARP-1, the IC50 was in the range of 101 to 1000 nM. The EC50 in the assay on HCC1937 cells (setting [1]) is greater than 1000 nM.

As to `NC(=O)c1cc(F)cc2[nH]c3c(-c4ccc(F)cc4)cnn3c12` [Example 41, 6-fluoro-3-(4-fluorophenyl)-4H-benzo[4,5]imidazo[1,2-b]pyrazole-8-carboxamide], the half-maximal inhibitory concentration (IC50) on PARP-1 was 101 to 1000 nM. The concentration giving a half-maximal response (EC50) with HCC1937 cells (setting [1]) is greater than 1000 nM.

As to `CN(C)CCN1CCC(c2cnn3c2[nH]c2cc(F)cc(C(N)=O)c23)CC1` [Example 14, 3-(1-(2-(dimethylamino)ethyl)piperidin-4-yl)-6-fluoro-4H-benzo[4,5]imidazo[1,2-b]pyrazole-8-carboxamide], the IC50 at PARP-1 lay in the range of 1 to 100 nM. Besides, in the assay on HCC1937 cells (setting [1]), the EC50 was 1 to 100 nM.

Consider `CC(C)CN1CCC(C)(c2cnn3c2[nH]c2cc(F)cc(C(N)=O)c23)CC1` [Example 82, 6-fluoro-3-(1-isobutyl-4-methylpiperidin-4-yl)-4H-benzo[4,5]imidazo[1,2-b]pyrazole-8-carboxamide], for which, on PARP-1, the half-maximal inhibitory concentration (IC50) is 1 to 100 nM. Further, the EC50 with HCC1937 cells (setting [1]) is 1 to 100 nM.

Turning to `CC1(c2cnn3c2[nH]c2cc(F)cc(C(N)=O)c23)CCN(CCC#N)C1` (centres unmarked) [Example 103, 3-(1-(2-cyanoethyl)-3-methylpyrrolidin-3-yl)-6-fluoro-4H-benzo[4,5]imidazo[1,2-b]pyrazole-8-carboxamide], on PARP-1, the IC50 was 1 to 100 nM. Further, in the assay on HCC1937 cells (setting [1]), the EC50 lay in the range of 101 to 1000 nM.

In the case of `CC1(c2cnn3c2[nH]c2cc(F)cc(C(N)=O)c23)CCN(S(C)(=O)=O)CC1` [Example 75, 6-fluoro-3-(4-methyl-1-(methylsulfonyl)piperidin-4-yl)-4H-benzo[4,5]imidazo[1,2-b]pyrazole-8-carboxamide], the IC50 at PARP-1 was 1 to 100 nM. The EC50 in the assay on HCC1937 cells (setting [1]) was in the range of 101 to 1000 nM.

In the case of `Cc1nn2c([nH]c3cc(F)cc(C(N)=O)c32)c1C1(C)CCN(C)CC1` [Example 115, 3-(1,4-dimethylpiperidin-4-yl)-6-fluoro-2-methyl-4H-benzo[4,5]imidazo[1,2-b]pyrazole-8-carboxamide], the IC50 at PARP-1 is 1 to 100 nM. The EC50 with HCC1937 cells (setting [1]) lay in the range of 1 to 100 nM.

On to `CC(C)N1CCC(c2cnn3c2[nH]c2cc(F)cc(C(N)=O)c23)CC1` [Example 10, 6-fluoro-3-(1-isopropylpiperidin-4-yl)-4H-benzo[4,5]imidazo[1,2-b]pyrazole-8-carboxamide], for which the IC50 at PARP-1 was in the range of 1 to 100 nM. Further, the concentration giving a half-maximal response (EC50) in the assay on HCC1937 cells (setting [1]) is 1 to 100 nM.

For the molecule `COC(=O)C1(c2cnn3c2[nH]c2cc(F)cc(C(N)=O)c23)CCN(CC2CC2)CC1` [Example 110, methyl 4-(8-carbamoyl-6-fluoro-4H-benzo[4,5]imidazo[1,2-b]pyrazol-3-yl)-1-(cyclopropylmethyl)piperidine-4-carboxylate], the IC50 on PARP-1 lay in the range of 1 to 100 nM. Besides, the EC50 with HCC1937 cells (HCC1937, read-out: cellular PARylation EC50) fell in the range of 101 to 1000 nM.

Turning to `CC1(c2cnn3c2[nH]c2cc(F)cc(C(N)=O)c23)CCN(CCC(F)(F)F)C1` (centres unmarked) [Example 99, 6-fluoro-3-(3-methyl-1-(3,3,3-trifluoropropyl)pyrrolidin-3-yl)-4H-benzo[4,5]imidazo[1,2-b]pyrazole-8-carboxamide], the IC50 on PARP-1 lay within 1 to 100 nM. In addition, the concentration for a half-maximal effect (EC50) with HCC1937 cells (setting [1]) lay within 1 to 100 nM.

Consider `CC1(c2cnn3c2[nH]c2cc(F)cc(C(N)=O)c23)CCN(CC2(C#N)CCC2)C1` (centres unmarked) [Example 101, 3-(1-((1-cyanocyclobutyl)methyl)-3-methylpyrrolidin-3-yl)-6-fluoro-4H-benzo[4,5]imidazo[1,2-b]pyrazole-8-carboxamide], for which, on PARP-1, the IC50 was 1 to 100 nM. Besides, the EC50 in the assay with HCC1937 cells (setting [1]) is 101 to 1000 nM.

`CN(C)C(=O)C1CC1CN1CCC(C)(c2cnn3c2[nH]c2cc(F)cc(C(N)=O)c23)CC1` (centres unmarked) [Example 81]: the IC50 on PARP-1 is 1 to 100 nM. Also, the EC50 in the assay on HCC1937 cells (setting [1]) is 1 to 100 nM.

`Cc1ncsc1CN1CCC(C)(c2cnn3c2[nH]c2cc(F)cc(C(N)=O)c23)CC1` [Example 83, 6-fluoro-3-(4-methyl-1-((4-methylthiazol-5-yl)methyl)piperidin-4-yl)-4H-benzo[4,5]imidazo[1,2-b]pyrazole-8-carboxamide]: on PARP-1, the IC50 fell in the range of 1 to 100 nM. For the same molecule, the EC50 in the assay on HCC1937 cells (setting [1]) is 1 to 100 nM.

Turning to `CCCN1CCC(c2cnn3c2[nH]c2cc(F)cc(C(N)=O)c23)CC1` [Example 12, 6-fluoro-3-(1-propylpiperidin-4-yl)-4H-benzo[4,5]imidazo[1,2-b]pyrazole-8-carboxamide], the IC50 at PARP-1 fell in the range of 1 to 100 nM. In addition, the EC50 in the assay with HCC1937 cells (setting [1]) lay in the range of 1 to 100 nM.
